# Columns and labels:
# HSV-1 (KOS) = test: Anti-viral activity: HSV-1-induced cytopathicity in human embryo fibroblast E6SM cell cultures; type: cell-based, herpes simplex virus (HSV); conditions: Human alphaherpesvirus 1, 50%
# HSV-2 (G) = test: Anti-viral activity: HSV-2-induced cytopathicity in human embryo fibroblast E6SM cell cultures; type: cell-based, herpes simplex virus (HSV); conditions: Human alphaherpesvirus 2, 50%
# VV = test: microbe, parasite or virus in culture; type: cell-based; conditions: Orthopoxvirus vaccinia, E6SM, read-out: EC50 VV (E6SM)
# VZV OKA = test: microbe, parasite or virus in culture; type: cell-based, varicella zoster virus (VZV); conditions: Human alphaherpesvirus 3, HEL, read-out: EC50 VZV (HEL) OKA
# VZV YS = test: Anti-viral activity: VZV-induced plaque formation in HEL cell cultures, YS strain; type: cell-based, varicella zoster virus (VZV); conditions: Human alphaherpesvirus 3, VZV-induced plaque formation in human embryonic lung HEL cell cultures, 50%
# CMV AD-169 strain = test: Anti-CMV activity: plaque reduction in HEL cells, AD-169 strain; type: cell-based, human cytomegalovirus (CMV); conditions: Human betaherpesvirus 5, AD169, HEL; Table 6; reduce virus plaque formation by 50%; virus input 100 PFU; read-out: Anti-CMV activity IC50 AD-169 strain
# CMV Davis strain = test: Anti-CMV activity: plaque reduction in HEL cells, Davis strain; type: cell-based, human cytomegalovirus (CMV); conditions: Human betaherpesvirus 5, HEL; Table 6; reduce virus plaque formation by 50%; virus input 100 PFU; read-out: Anti-CMV activity IC50 Davis strain
# [1] = tested on: murine leukemia cells (L1210/0); test: Cytostatic activity: inhibition of proliferation of L1210/0 cells; type: cell-based; conditions: Mus musculus, L1210/0; 50% inhibitory concentration, cell proliferation; read-out: IC50 L1210/0
# Experimental: (§1) The compounds were tested for anti-tumor activity via the inhibitory effects on the proliferation of murine leukemia cells (L1210/0), murine mammary carcinoma cells (FM3A), human T-lymphocyte cells (Molt4/C8, CEM/0) and human cervix carcinoma cells (HeLa).
# [2] = tested on: murine mammary carcinoma cells (FM3A); test: Cytostatic activity: inhibition of proliferation of FM3A cells; type: cell-based; conditions: Mus musculus, 50% inhibitory concentration, cell proliferation, read-out: IC50 FM3A/0
# Experimental: as §1
# [3] = tested on: human T-lymphocyte cells (Molt4/C8); test: Cytostatic activity: inhibition of proliferation of Molt4/C8 cells; type: cell-based; conditions: Molt4/C8, 50% inhibitory concentration, cell proliferation, read-out: IC50 Molt4/C8
# Experimental: as §1
# [4] = tested on: human T-lymphocyte cells (CEM/0); test: Cytostatic activity: inhibition of proliferation of CEM/0 cells; type: cell-based; conditions: CCRF-CEM, 50% inhibitory concentration, cell proliferation, read-out: IC50 CEM/0
# Experimental: as §1
# [5] = tested on: human cervix carcinoma cells (HeLa); test: Cytostatic activity: inhibition of proliferation of HeLa cells; type: cell-based; conditions: 50% inhibitory concentration, cell proliferation
# Experimental: as §1
# HEL cells = test: Cytotoxicity: alteration of cell morphology (MCC); type: cell-based, human; conditions: minimum cytotoxic concentration that causes a microscopically detectable alteration of cell morphology
# [6] = Cytotoxicity: inhibition of HEL cell growth (CC50); type: cell-based; conditions: human; concentration required to reduce cell growth by 50%; HEL cells, three days
# Experimental: The medium was then replaced by MEM containing various concentrations of the test compound. After three days incubation at 37° C., when the cell monolayer was 70% confluent, the cell number was determined with the Coulter counter. The minimum cytotoxic concentration was defined as the concentration required to reduce cell growth by 50%.
structure (smiles),measurement,setting,value
CCO[C@@H]1[C@@H](OCC)[C@H](Sc2ccccc2)O[C@@H]2CO[C@@H](c3ccccc3)O[C@@H]12 [KPE00001050],EC50,HSV-1 (KOS),> 3.2 µg/mL
same,EC50,HSV-2 (G),> 3.2 µg/mL
same,EC50,VV,> 3.2 µg/mL
same,EC50,VZV OKA,> 5 µg/mL
same,EC50,VZV YS,> 5 µg/mL
same,IC50,CMV AD-169 strain,> 50 µg/mL
same,IC50,CMV Davis strain,> 50 µg/mL
same,IC50,[1],> 200 µg/mL
same,IC50,[2],> 200 µg/mL
same,IC50,[3],> 200 µg/mL
same,IC50,[4],> 200 µg/mL
same,IC50,[5],> 200 µg/mL
same,Cytotoxicity Cell morphology (MCC),HEL cells,>50 μg/ml
same,CC50 at 3 days,[6],> 50 µg/mL

# From patent US7534871B2, “Preparation and use of carbohydrate-based bicyclic ring structures with antimicrobial and cytostatic activity” (Kemin Pharma B.V.B.A., priority 2004, dated 2009)
